Data on eight compounds can be found in patent US20030125234A1, “Alteration of protein stability” (priority 2001, published 2003).

Common to all, as to assay type: biochemical
Test [1] addresses T1, yeast alcohol dehydrogenase (ADH) (Saccharomyces cerevisiae, UniProt P00330).
T1 construct: purchased Sigma
T1 sequence (P00330 2-348 limits assumed): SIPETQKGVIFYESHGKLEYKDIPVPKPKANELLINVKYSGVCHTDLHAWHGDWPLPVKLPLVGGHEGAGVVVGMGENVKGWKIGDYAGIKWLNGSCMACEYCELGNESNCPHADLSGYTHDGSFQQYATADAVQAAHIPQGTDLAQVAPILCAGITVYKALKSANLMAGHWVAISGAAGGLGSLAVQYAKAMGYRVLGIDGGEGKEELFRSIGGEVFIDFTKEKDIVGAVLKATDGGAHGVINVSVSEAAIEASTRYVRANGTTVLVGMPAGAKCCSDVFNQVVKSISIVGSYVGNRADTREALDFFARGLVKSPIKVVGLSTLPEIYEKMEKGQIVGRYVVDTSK
As to the kind of experiment: ADH oxidation-induced aggregation (turbidity at 360 nm), Cu(OP)2. Particulars: for inhibition index: ADH 1 mg/mL, 37° C., Cu(OP)2. The procedure: (§1) Bovine insulin [Sigma, St. Louis, Mo., USA] was dissolved in phosphate saline (PBS) (50 mM sodium biphosphate, 100 mM sodium chloride), pH 7.0, bovine alpha-lactalbumin [Sigma] in 50 mM sodium phosphate, 100 mM sodium chloride and 2 mM EDTA, pH 6.2, chicken egg white lysozyme [Sigma] in 100 mM Tris, 1 mM EDTA, pH 8.2, human acidic fibroblast growth factor (FGF-1) in 6.2 mM sodium biphosphate, 120 mM sodium chloride, pH 7.2, porcine somatotropin (pST) [provided by Pfizer, Inc., Groton, Conn., USA] in 10 mM phosphate, pH 6. 1, human apolactoferrin (HLF) [Sigma] in 20 mM HEPES, 154 mM NaCl, pH 7.4, porcine heart citrate synthase (CS) in 40 mM HEPES, 50 mM KCl, 10 mM (NH4)2SO4 mM potassium acetate, pH 7.8, and yeast alcohol dehydrogenase (ADH) [Sigma] in pH 7.0 PBS. Selection of buffer solutions was based on an extensive series of preliminary studies to obtain appropriate insolubilization kinetics as described below.
(§2) Copper O-phenanthroline (1,10-phenanthroline) was prepared by mixing copper sulfate hexahydrate [Fisher] and o-phenanthroline [Sigma] in a 1:2 ratio. 1 M Dithiothreitol (DTT) was prepared at pH 7.0 PBS. Polyethylene glycol (M.W. 8000, Union Carbide, Danbury, Conn., USA) (PEG) was prepared at 20 mg/mL in 10 mM phosphate, pH 6.1.
(§3) The following compounds were obtained from Sigma and used without further purification: oxalic acid, sodium malonate, succinic acid, glutaric acid, adipic acid, pimelic acid, suberic acid, azelaic acid, guanidine hydrochloride, ammonium formate, beta-alanine, 4-aminobutyric acid, 5-aminovaleric acid, 6-aminocaproic acid, 7-aminoheptanoic acid, hydrazine, ethylenediamine, 1,3-diaminopropane, 1,4-diaminobutane, 1,5-diaminopentane, 1,6-diaminohexane, 1,7-diaminoheptane, Glu-Glu, Glu-Lys, Lys-Lys, diglycine, triglycine, tetraglycine, pentaglycine, and hexaglycine. […] Triglycine and tetraglycine were dissolved in pH 8.6 PBS, while pentaglycine and hexaglycine were dissolved in pH 10.6 PBS.
(§4) Each was either dissolved in pH 7.0 PBS, or pH 6.1 10 mM phosphate, and adjusted to the same pH.
(§5) Protein aggregation was monitored for 1 hour at 360 nm using an HP8453 UV-visible spectrophotometer system [Hewlett Packard, Germany]. […] Insulin (0.25 mg/mL (4.39E-5 M)) aggregation was monitored at 25° C. after addition of potential inhibitors and 20 μL of 1 M DTT (1.27E-4 M). Alpha-lactabumin (0.4 mg/mL (2.82E-5 M)) aggregation was monitored at 37° C. in the presence of 20 μL of 1 M DTT (1.27E-4 M). Lysozyme (0.4 mg/mL (2.86E-5 M)) aggregation was monitored at 25° C. in the presence of 20 μL of 1 M DTT (1.27E-4 M). FGF-1 (50 μg/mL (3.12E-6 M)) aggregation was monitored at 50° C. Porcine somatotropin (1.27 mg/mL (5.76E-5 M)) aggregation was monitored at 60° C. in the presence of PEG 8000 (20 mg/mL) which was included to enhance the protein association process through a simple exclusion volume effect. HLF (0.4 mg/mL (5.23E-6 M)) aggregation was monitored at 43° C. in the presence of 1.27E-4 M DTT. Citrate synthase (96 μg/mL (9.80E-7 M)) aggregation was monitored at45° C. ADH (1 mg/mL (7.14E-6 M)) was monitored at 37° C. following the addition of 7.76E-5 M Cu(OP)2. Aggregation was compared to protein in the absence of the particular dipolar compound. After stirring, experiments were initiated by the addition of proteins followed by stressing reagents to 1 cm pathlength cuvettes employing a seven-position thermostatted sample holder that was cycled at 30-second intervals. Alternatively, a microtiter plate reader was employed under the same conditions in a 96 well format.
(§6) All optical density (OD)360nm versus time results were exported into Excel [Microsoft] for data analysis.

A further test has as its target T2, Bovine insulin (Bos taurus, UniProt P01317).
T2 construct: purchased Sigma, St. Louis, Mo., USA
The test can be described thus: Insulin aggregation (turbidity at 360 nm) induced by DTT. The conditions noted are these: Insulin 0.25 mg/mL, 25° C., DTT; compound 100×; standard deviation in parenthesis. The procedure:
as §1, §2, §3, §4, §5, §6

Test [2] has as its target human acidic fibroblast growth factor (FGF-1) (Homo sapiens, UniProt P05230). The test can be described thus: FGF-1 thermal aggregation (turbidity at 360 nm). The conditions noted are these: FGF-1 50 μg/mL, 50° C., standard deviation in parenthesis. The procedure:
as §1, §3, §4, §5
(§7) All optical density (OD)360nm versus time results were exported into Excel [Microsoft] for data analysis. […] The maximum rate of change in OD versus time plots (r) was used to determine the rate of the reaction from the slope at this point.

For test [3], the target named is T3, chicken egg white lysozyme (Gallus gallus, UniProt P00698).
T3 construct: chicken egg white lysozyme [Sigma]; purchased Sigma; host or cells: egg white
T3 sequence (P00698 19-147): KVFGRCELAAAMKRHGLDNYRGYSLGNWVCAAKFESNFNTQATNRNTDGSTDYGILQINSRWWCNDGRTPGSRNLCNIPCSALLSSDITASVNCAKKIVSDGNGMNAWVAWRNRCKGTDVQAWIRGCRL
As to the kind of experiment: Lysozyme aggregation (turbidity at 360 nm) induced by DTT. The conditions noted are these: Lysozyme 0.4 mg/mL, 25° C., DTT; compound 1,000×; standard deviation in parenthesis. How it is done:
as §1, §2, §3, §4, §5, §6

Test [4] deals with T4, porcine heart citrate synthase (CS) (Sus scrofa, UniProt P00889).
T4 construct: porcine heart citrate synthase (CS); from tissue; host or cells: porcine heart
T4 sequence (P00889 28-464): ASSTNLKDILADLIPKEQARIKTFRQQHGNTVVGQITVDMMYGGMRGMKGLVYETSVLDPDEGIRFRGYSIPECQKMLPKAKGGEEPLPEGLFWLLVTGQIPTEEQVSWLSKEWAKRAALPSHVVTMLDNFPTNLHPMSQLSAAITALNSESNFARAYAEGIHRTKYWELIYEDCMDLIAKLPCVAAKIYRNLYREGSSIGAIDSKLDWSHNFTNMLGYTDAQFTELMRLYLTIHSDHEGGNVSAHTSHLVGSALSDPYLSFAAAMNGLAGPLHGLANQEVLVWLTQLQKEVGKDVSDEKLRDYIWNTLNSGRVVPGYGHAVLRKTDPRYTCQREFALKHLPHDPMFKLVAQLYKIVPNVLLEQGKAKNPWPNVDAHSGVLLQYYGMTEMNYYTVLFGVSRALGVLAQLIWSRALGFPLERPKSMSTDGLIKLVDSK
The test can be described thus: Citrate synthase thermal aggregation (turbidity at 360 nm). The conditions noted are these: for inhibition index: CS 96 μg/mL, 45° C., standard deviation in parenthesis. The procedure:
as §1, §3, §4, §5, §7

Test [5] has as its target T5, human apolactoferrin (HLF) (Homo sapiens, UniProt P02788).
T5 construct: purchased Sigma
As to the kind of experiment: HLF aggregation (turbidity at 360 nm) induced by DTT. Particulars: HLF 0.4 mg/mL, 43° C., DTT, head 10,000×, standard deviation in parenthesis. How it is done: as §1, §2, §3, §4, §5, §6

Another test deals with T6, bovine alpha-lactalbumin (Bos taurus, UniProt P00711).
T6 construct: purchased Sigma
T6 sequence (P00711 20-142): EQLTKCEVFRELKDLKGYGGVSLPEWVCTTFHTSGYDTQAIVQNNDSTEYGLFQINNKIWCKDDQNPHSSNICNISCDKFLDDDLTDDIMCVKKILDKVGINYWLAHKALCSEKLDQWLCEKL
As to the kind of experiment: Alpha-lactalbumin aggregation (turbidity at 360 nm) induced by DTT. Particulars: α Lactalbumin 0.4 mg/mL, 37° C., DTT; compound 1,000×; standard deviation in parenthesis. How it is done:
as §1, §2, §3, §4, §5, §6

Test [6] concerns the target T7, porcine somatotropin (pST) (Sus scrofa, UniProt P01248).
T7 construct: purchased Pfizer, Inc., Groton, Conn., USA (provided, not bought)
T7 sequence (P01248 27-216): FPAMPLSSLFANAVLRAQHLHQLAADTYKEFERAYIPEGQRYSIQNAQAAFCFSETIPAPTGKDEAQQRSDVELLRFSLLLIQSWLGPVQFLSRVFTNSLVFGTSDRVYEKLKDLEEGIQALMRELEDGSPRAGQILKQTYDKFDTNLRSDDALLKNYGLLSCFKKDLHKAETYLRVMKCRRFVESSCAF
The test can be described thus: Porcine somatotropin aggregation (turbidity at 360 nm) with PEG 8000. Particulars: pST 1.27 mg/mL, 60° C., standard deviation in parenthesis. How it is done: as §1, §2, §3, §4, §5, §6

[7] abbreviates: compound 10,000X molar excess, Infinite = complete inhibition of aggregation over one hour.
Setting [8] is: compound 1,000X, standard deviation in parenthesis.

T2 sequence (P01317 25-54 limits assumed): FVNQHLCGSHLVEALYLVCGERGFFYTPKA
T2 sequence (P01317 85-105 limits assumed): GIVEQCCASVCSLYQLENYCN
Sequence of human acidic fibroblast growth factor (FGF-1) (P05230 whole entry): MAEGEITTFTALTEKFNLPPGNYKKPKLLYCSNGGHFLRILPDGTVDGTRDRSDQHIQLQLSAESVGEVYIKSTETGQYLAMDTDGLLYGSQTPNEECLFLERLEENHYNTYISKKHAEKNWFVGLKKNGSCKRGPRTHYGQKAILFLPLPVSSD
T5 sequence (P02788 20-710): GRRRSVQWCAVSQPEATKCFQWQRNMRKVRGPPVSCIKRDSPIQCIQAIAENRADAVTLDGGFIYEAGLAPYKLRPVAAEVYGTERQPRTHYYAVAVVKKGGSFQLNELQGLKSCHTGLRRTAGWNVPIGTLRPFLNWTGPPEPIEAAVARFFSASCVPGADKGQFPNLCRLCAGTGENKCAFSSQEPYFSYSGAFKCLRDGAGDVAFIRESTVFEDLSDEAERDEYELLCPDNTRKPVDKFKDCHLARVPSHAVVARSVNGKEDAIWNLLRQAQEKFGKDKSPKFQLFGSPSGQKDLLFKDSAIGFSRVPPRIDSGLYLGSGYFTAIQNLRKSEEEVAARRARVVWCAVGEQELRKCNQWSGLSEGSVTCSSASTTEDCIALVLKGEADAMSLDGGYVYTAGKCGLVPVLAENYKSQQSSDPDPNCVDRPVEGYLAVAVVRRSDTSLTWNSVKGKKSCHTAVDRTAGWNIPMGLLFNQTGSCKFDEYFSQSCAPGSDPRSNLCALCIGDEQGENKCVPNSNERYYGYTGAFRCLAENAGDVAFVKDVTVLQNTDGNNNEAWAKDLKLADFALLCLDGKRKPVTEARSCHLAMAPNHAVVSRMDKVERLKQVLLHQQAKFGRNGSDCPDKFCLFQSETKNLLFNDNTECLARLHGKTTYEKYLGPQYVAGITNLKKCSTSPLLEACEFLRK

For `[Cl-].[Na+]` [NaCl], the “inhibition of ADH aggregation, in words” value in test [1] (FIG. 1) is “negligible effect on aggregation”.

Regarding `N.O=CO` [ammonium formate], the inhibition index on Bovine insulin is 1.2 (0.5); in test [2] (compound 1,000×), 0.9 (0.1); in test [2] (compound 10,000×), 1.3 (0.3); in test [3], 1.5 (0.3); in test [1] (setting [7]), 1.2 (0.1); in test [4] (compound 10,000X), 0.6 (0.0). In addition, the inhibition index in test [4] (compound 50,000X) is recorded as 1.2 (0.3); in test [5] (second HLF column), 5.8 (1.1); on bovine alpha-lactalbumin, 0.8 (0.3).

Take `O=C(O)CCCCCCCC(=O)O` [azelaate, azelaic acid]: the inhibition index on Bovine insulin is recorded as 1.5 (0.4); in test [2] (compound 1,000×), 1.9 (0.2); in test [2] (compound 10,000×) it was 6.1 (2.6); in test [3] it was 1.0 (0.2); in test [6] (compound 100X), 0.6 (0.0); in test [6] (compound 2,000X), 1.3 (0.3). The inhibition index in test [4] (compound 10,000X) was 0.7 (0.6); in test [4] (compound 50,000X) it was 4.4 (1.8); in test [5] (second HLF column), 1455.0; on bovine alpha-lactalbumin, 2.3 (0.6).

`Cl.N=C(N)N` [guanidine HCl, guanidine hydrochloride]: the inhibition index on Bovine insulin is on record as 0.9 (0.4); in test [2] (compound 1,000×) it was 1.2 (0.2); in test [2] (compound 10,000×) it was 2.8 (0.9); in test [3], 0.9 (0.2); in test [1] (setting [7]), 0.2 (0.1); in test [4] (compound 10,000X), 0.6 (0.4). Moreover, the inhibition index in test [4] (compound 50,000X) is on record as 0.4 (0.1); in test [5] (second HLF column) it was 0.9 (0.1); on bovine alpha-lactalbumin, 1.7 (0.6).

For the compound “CH3—NH2-(Glu)^−-(Gly)n-(Glu)^−-COO^− [CH3—NH2—(E)^−—(G)2—(E)^−—COO^−]”, the inhibition index at Bovine insulin is recorded as 1.0 (0.2); in test [2] (compound 1,000×), 2.5 (0.6); in test [3] it was 0.8 (0.4); in test [1] (setting [8]), 1.1 (0.1); in test [4] (compound 1,000X), 0.9 (0.2); in test [5] (first HLF column), 1.7 (0.2). Further, the inhibition index on bovine alpha-lactalbumin is on record as 0.4 (0.2).

For the compound “CH3—NH2-(Glu)^−-(Gly)n-(Glu)^−-COO^− [CH3—NH2—(E)^−—(G)4—(E)^−—COO^−]”, the inhibition index at Bovine insulin is listed as 1.4 (0.6); in test [2] (compound 1,000×), 1.6 (0.2); in test [3], 0.9 (0.3); in test [1] (setting [8]), 1.4 (0.1); in test [4] (compound 1,000X), 0.7 (0.1); in test [5] (first HLF column), 1.7 (0.3). In addition, the inhibition index at bovine alpha-lactalbumin is 0.7 (0.4).

In the case of “CH3—NH2-(Glu)^−-(Gly)n-(Glu)^−-COO^− [CH3—NH2—(E)^−—(G)5—(E)^−—COO^−]”, the inhibition index was 1.3 (0.1) at Bovine insulin; 12.3 (0.4) in test [2] (compound 1,000×); 0.1 (0.1) in test [3]; 1.2 (0.1) in test [1] (setting [8]); 0.6 (0.1) in test [4] (compound 1,000X); 1.6 (0.1) in test [5] (first HLF column).

As for Glu-Lys, the inhibition index at Bovine insulin is reported as 1.0 (0.1); in test [2] (compound 1,000×), 1.6 (0.3); in test [2] (compound 10,000×) it was 11.0 (3.0); in test [3], 1.0 (0.4); in test [1] (setting [8]), 1.7 (0.1); in test [1] (setting [7]), 18.4. Also, the inhibition index in test [4] (compound 1,000X) is listed as 0.8 (0.2); in test [4] (compound 10,000X), 1.6 (0.2); in test [4] (compound 50,000X) it was 21.5; in test [5] (first HLF column) it was 9.8 (0.3); in test [5] (second HLF column), 44.5; on bovine alpha-lactalbumin, 1.0 (0.1). In test [4], the “inhibition of citrate synthase aggregation, in words” value was “Potent inhibitors”.
